In one experiment the target is T1, BACE1 (Homo sapiens, UniProt P56817).
T1 construct: purchased PanVera Corporation, Madison, WI, USA P2985
Briefly: BACE1 (β-secretase) FRET inhibitory assay. The class given is biochemical. The conditions noted are these: isolated compounds; mean ± SD, n = 3; read-out: IC50 BACE1. The procedure:
The BACE1 inhibition assay was conducted using the BACE1 (β-secretase) FRET Assay Kit, Red Protocol, part number P2985 (PanVera® Corporation, Madison, WI, USA), following the manufacturer’s recommended protocol with minor modifications. The assay mixture consisted of 10 μL of BACE1 (1.0 U/mL), 10 μL of substrate (750 nM Rh-[…]-Quencher in 50 mM ammonium bicarbonate), the assay buffer (50 mM sodium acetate, pH 4.5), and 10 μL of the test samples. […] The reaction mixture was incubated for 60 min at room temperature in darkness. Before measurement, a stop solution (2.5 M sodium acetate) was added to halt the reaction. BACE1 enzyme activity was assessed by monitoring the proteolysis of two fluorophores (Rh-[…]-Quencher), forming the fluorescent donor (Rh-EVNL) with increased fluorescence wavelengths at 530–545 nm (excitation) and 570–590 nm (emission), respectively. All reactions were recorded in black 96-well microplates and performed in triplicate. The percentage of inhibition (%) was calculated using the following formula: inhibition (%)=[1−(S60−S0)/(C60−C0)]×100 , where C60 represents the fluorescence of the control after incubation, C0 represents the initial fluorescence of the control, S60 represents the fluorescence of the tested sample after incubation, and S0 represents the initial fluorescence of the tested sample. The BACE1-inhibitory activities of each sample were quantified in terms of IC50, which was determined from the log–dose inhibition curve.

The target in a further experiment is T2, MAO-B (Homo sapiens, UniProt P27338).
T2 construct: purchased Abcam plc, Cambridge, UK ab284511
T2 sequence (P27338 1-520): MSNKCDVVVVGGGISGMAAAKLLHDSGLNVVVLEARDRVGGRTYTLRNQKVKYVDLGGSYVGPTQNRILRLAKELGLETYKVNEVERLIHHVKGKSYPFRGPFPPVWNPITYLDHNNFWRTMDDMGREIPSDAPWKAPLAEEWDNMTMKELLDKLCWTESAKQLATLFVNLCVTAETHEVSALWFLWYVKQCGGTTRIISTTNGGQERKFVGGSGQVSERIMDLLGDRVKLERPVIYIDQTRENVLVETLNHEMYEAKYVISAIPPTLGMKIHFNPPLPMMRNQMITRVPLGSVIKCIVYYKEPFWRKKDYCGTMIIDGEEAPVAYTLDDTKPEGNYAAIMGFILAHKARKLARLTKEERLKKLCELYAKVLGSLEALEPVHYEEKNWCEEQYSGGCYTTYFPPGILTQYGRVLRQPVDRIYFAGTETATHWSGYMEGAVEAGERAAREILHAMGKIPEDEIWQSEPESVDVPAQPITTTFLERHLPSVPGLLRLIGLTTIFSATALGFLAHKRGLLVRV
The experiment can be described thus: MAO-B inhibitor screening kit (fluorometric) assay. In kind it is biochemical. The conditions noted are these: isolated compounds; mean ± SD, n = 3; ND = no detection using test concentration. How it is done:
The MAO-B-inhibition assay was conducted using the MAO-B Inhibitor Screening Kit (Fluorometric) ab284511 (Abcam plc, Cambridge, UK), following the manufacturer’s recommended protocol with minor modifications. The enzyme solution (50 µL) and the test sample (10 µL) were adjusted as per the manual instructions. […] After mixing, samples and enzymes were incubated at 25 °C for 10 min. Subsequently, 40 μL of MAO-B substrate (comprising MAO-B assay buffer, MAO substrate, developer, and OxiRed probe) was added, followed by further incubation at 25 °C for 5 min. Fluorescence was measured using enzyme-linked immunosorbent assay within 40 min with dynamic fluorescence (Ex/Em = 535/587 nm). All reactions were recorded in black 96-well microplates and performed in triplicate. The slope for all samples, including the enzyme control (EC), was calculated by dividing the net ΔRFU (RFU2–RFU1) values by the time Δt (T2 − T1). The % relative inhibition was computed as follows: % relative inhibition=(slope of EC−slope of S)/slope of EC×100 . The MAO-B-inhibitory activities of each sample were quantified in terms of IC50, as determined from the log–dose inhibition curve.

The subject of another experiment is β-secretase. The experiment can be described thus: Western blot of β-secretase levels in APP-CHO cells. The class given is cell-based, Chinese hamster. The conditions noted are these: 1.0 μM, 24 h. How it is done: APP-CHO cells were seeded in six-well plates at a density of 6 × 10^5 cells/1000 μL of medium per well and incubated at 37 °C overnight for cell attachment. Then, the medium was replaced with FBS-free RPMI 1640 for 1 h, followed by treatment with test samples at 37 °C. After 24 h, the cells were washed with PBS and lysed in Laemmli sample buffer. The collected cell lysates were boiled at 100 °C for 10 min. For Western blot analysis, 20 μg of proteins were separated by 7.5% SDS-PAGE and transferred to a PVDF membrane using Trans-Blot® Turbo TM (Bio-Rad, Hercules, CA, USA). The membrane was blocked with 5% skim milk in PBS for 1 h and incubated with primary antibodies overnight at 4 °C. The primary antibodies used were sAPPβ antibody, BACE1 antibody, and α-tubulin antibody diluted at 1:1000, 1:1000, and 1:25,000, respectively. After washing with PBS-T (0.1% Tween 20 in PBS) three times for 10 min each, secondary antibodies, diluted to 1:2500, were incubated for 1 h. Protein detection was performed using ECL solution reagent and protein visualization (ChemiDoc^TM XRS+., Bio-Rad, Hercules, CA, USA). The signal intensity of the bands was quantified and normalized to the signal intensity of the α-tubulin band. Results were expressed as a percentage of DMSO-treated control.
(In general: A western blot detects proteins with antibodies after separation by electrophoresis.)

As usually defined, the IC50 is the midpoint of a concentration-inhibition curve.

Values joined by “and” are separate entries in the source; they are usually repeats but may differ in a detail not shown here. Identical values can stand only once.

T1 sequence (P56817 46-501): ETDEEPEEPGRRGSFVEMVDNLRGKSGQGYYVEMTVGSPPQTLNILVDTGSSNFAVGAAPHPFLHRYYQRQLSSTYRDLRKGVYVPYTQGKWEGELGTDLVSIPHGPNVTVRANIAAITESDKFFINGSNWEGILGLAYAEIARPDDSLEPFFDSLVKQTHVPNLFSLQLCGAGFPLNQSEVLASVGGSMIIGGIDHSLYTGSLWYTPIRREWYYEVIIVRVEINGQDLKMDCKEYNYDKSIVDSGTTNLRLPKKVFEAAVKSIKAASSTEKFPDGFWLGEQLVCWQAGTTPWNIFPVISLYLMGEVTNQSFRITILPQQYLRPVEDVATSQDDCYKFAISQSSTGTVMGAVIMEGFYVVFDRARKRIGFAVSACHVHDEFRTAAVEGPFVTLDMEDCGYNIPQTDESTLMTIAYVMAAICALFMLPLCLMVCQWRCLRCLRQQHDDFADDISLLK

Take `C[C@@H]1O[C@@H](Oc2c(-c3ccc(O)cc3)oc3cc(O[C@@H]4O[C@H](CO)[C@@H](O)[C@H](O)[C@H]4O)cc(O)c3c2=O)[C@H](O)[C@H](O)[C@H]1O` [Compound 6, kaempferol 3-O-rhamnoside 7-O-glucoside]: the IC50 at BACE1 stood at 83.27 ± 0.33 µM; on MAO-B, 109.19 ± 0.08 µM. Also, the “reduction of β-secretase levels compared to DMSO-treated controls” value with β-secretase is 30%.
For the molecule `O=c1c(O[C@@H]2O[C@H](CO)[C@@H](O)[C@H](O)[C@H]2O)c(-c2ccc(O)cc2)oc2cc(O[C@@H]3O[C@@H](CO)[C@H](O)[C@H]3O)cc(O)c12` [Compound 7, kaempferol 3-o-b-d-glucopyranoside-7-o-a-L-arabinofuranoside], the figures for the IC50 at BACE1 and on MAO-B were 39.11 ± 0.17 µM and 65.8 ± 3.72 µM, respectively. In the experiment with β-secretase, the “reduction of β-secretase levels compared to DMSO-treated controls” value is 40% and 30%.
